Measurements: US9902696B2, “1,4-substituted piperidine derivatives” (Cephalon, Inc., priority 2015, dated 2018)
Where a name gives a salt, the structure may show the parent alone.

Molecular target: T1, recombinant human baculovirus-expressed GST-tagged FASN (Homo sapiens, UniProt P49327)
T1 construct: GST
Assay: FASN enzyme activity assay, fluorescence-based detection of CoA with CPM
Format: biochemical
Conditions: 5 nM FASN, 150 μM NADPH, 10 μM acetyl-CoA, 25 μM malonyl-CoA, 90 minutes incubation; read-out: IC50 data for Additional Compounds of Formulae I-V(a): Activity
How it was run: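 Human GST-tagged FASN, baculovirus-expressed (5 nM), in 50 mM HEPES pH 7.5 with 150 μM NADPH, 10 μM acetyl-CoA, 25 μM malonyl-CoA, 0.5% DMSO; malonyl-CoA-started, 90 min. Released CoA detected with CPM (50 μM dilution), 30 min, fluorescence ex 390/em 530. IC50 from variable-slope sigmoidal fit of % inhibition versus log concentration.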

T1 sequence (P49327 whole entry): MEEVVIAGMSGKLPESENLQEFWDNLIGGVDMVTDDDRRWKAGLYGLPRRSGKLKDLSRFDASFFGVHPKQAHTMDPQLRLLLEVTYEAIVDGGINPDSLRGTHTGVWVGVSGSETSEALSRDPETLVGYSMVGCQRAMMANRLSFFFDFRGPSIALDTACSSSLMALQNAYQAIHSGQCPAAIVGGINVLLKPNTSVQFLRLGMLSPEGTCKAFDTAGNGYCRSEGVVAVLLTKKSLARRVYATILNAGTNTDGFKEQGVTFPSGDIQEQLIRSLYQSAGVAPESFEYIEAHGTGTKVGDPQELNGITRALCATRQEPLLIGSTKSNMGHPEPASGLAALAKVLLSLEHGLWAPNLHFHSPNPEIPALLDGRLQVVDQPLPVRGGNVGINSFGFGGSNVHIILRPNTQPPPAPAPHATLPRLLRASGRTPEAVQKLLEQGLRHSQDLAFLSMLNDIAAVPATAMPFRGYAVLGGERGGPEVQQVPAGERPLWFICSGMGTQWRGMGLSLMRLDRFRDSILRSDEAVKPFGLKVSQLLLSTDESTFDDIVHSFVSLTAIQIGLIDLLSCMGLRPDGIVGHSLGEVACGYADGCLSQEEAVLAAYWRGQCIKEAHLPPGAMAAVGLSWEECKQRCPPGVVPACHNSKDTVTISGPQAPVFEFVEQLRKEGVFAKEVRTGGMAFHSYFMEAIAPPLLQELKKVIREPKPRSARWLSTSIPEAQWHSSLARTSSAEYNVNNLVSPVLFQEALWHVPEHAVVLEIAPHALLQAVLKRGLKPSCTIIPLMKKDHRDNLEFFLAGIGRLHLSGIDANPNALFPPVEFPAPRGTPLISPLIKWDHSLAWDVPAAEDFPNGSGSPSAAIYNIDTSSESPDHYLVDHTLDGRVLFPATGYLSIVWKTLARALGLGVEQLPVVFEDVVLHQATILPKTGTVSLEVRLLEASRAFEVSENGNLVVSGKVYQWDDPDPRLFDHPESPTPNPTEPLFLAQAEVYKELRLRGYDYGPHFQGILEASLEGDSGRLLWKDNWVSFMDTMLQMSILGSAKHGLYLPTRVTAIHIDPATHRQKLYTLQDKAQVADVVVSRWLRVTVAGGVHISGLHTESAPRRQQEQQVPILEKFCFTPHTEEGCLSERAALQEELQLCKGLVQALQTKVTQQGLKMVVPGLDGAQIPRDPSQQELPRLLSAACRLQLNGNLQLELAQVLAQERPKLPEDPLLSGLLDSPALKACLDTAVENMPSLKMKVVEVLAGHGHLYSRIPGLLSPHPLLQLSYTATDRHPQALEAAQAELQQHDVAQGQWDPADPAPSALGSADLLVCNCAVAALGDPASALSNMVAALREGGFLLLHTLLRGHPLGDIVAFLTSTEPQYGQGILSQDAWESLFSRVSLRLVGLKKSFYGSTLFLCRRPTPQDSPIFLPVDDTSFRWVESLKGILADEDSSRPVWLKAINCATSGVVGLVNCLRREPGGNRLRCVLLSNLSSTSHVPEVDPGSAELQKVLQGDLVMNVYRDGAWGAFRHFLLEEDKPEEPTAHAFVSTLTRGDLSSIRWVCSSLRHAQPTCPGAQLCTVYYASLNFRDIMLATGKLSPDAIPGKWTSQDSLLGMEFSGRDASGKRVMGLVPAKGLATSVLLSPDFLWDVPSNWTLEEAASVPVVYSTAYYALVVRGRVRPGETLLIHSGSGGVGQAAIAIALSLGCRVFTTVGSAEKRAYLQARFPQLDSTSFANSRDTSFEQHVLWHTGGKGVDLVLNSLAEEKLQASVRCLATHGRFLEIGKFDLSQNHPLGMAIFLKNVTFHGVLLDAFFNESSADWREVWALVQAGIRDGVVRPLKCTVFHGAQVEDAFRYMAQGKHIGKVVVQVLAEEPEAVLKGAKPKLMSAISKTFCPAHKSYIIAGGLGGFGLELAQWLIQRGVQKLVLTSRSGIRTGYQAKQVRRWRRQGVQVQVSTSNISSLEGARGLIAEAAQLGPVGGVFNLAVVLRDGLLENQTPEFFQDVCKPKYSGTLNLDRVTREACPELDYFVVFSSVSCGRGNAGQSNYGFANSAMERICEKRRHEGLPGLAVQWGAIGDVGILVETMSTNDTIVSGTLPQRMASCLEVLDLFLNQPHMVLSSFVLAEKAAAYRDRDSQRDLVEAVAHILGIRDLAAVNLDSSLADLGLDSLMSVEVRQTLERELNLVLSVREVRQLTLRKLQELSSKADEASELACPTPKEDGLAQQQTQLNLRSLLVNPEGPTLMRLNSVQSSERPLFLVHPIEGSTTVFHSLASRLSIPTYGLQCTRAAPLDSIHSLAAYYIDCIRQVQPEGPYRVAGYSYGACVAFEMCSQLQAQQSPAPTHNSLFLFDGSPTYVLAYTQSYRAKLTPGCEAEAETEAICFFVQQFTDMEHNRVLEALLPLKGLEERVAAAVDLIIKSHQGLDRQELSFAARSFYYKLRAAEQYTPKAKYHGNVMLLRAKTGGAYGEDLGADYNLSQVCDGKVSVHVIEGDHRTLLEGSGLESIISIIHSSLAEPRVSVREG

IC50	Structure (SMILES)
1 to 99 nM	CONC(=O)N1CCC(Oc2ccc(-c3ccc4ccnn4c3C)cc2)CC1 [Example 539, N-Methoxyoxy-4-[4-(7-methylpyrazolo[1,5-a]pyridin-6-yl)phenoxy]piperidine-1-carboxamide]
1000 to 10000 nM	Cc1c(-c2ccc(OC3CCN(C(=O)OCC(C)C)CC3)cc2)ccc2nccn12 [Example 602, Isobutyl 4-[4-(5-methylimidazo[1,2-a]pyridin-6-yl)phenoxy]piperidine-1-carboxylate]
1 to 99 nM	CC(=O)OCC(=O)N1CCC(Oc2ccc(-c3ccc4cccnc4c3C)cc2)CC1 [Example 625, [2-[4-[4-(8-Methyl-7-quinolyl)phenoxy]-1-piperidyl]-2-oxo-ethyl]acetate]
1000 to 10000 nM	Cc1c(-c2ccc(OC3CCN(C(=O)OC4CCC4)CC3)cc2)ccc2cccnc12 [Example 561, Cyclobutyl 4-[4-(8-methyl-7-quinolyl)phenoxy]piperidine-1-carboxylate]

Structure (SMILES)	IC50
Cc1c(-c2ccc(OC3CCN(C(=O)NOCC(C)C)CC3)cc2)ccc2nccn12 [Example 601, N-Isobutoxy-4-[4-(5-methylimidazo[1,2-a]pyridin-6-yl)phenoxy]piperidine-1-carboxamide]	1 to 99 nM

Same assay, conditions: 5 nM FASN, 150 μM NADPH, 10 μM acetyl-CoA, 25 μM malonyl-CoA, 90 minutes incubation; read-out: IC50 data for Compounds of Formulae I-V/V(a): Activity

Structure (SMILES)	IC50
Cc1c(-c2ccc(OC3CCN(C(=O)C4CC4)C(C)C3)cc2)ccc2cccnc12 (racemic) [Example 365, Cyclopropyl-{2-methyl-4-[4-(8-methylquinolin-7-yl)-phenoxy]-piperidin-1-yl}-methanone HCl]	1000 to 10000 nM
CCC(=O)N1CCC(Oc2ccc(-c3ccc4c(Cl)nccc4c3)cc2)CC1 [Example 419, 1-{4-[4-(1-Chloroisoquinolin-6-yl)-phenoxy]-piperidin-1-yl}-propan-1-one]	100 to 999 nM
Cc1cc(-c2ccc(OC3CCN(C(=O)C4CC4)CC3)cc2)cc2ncccc12 [Example 347, Cyclopropyl(4-(4-(5-methylquinolin-7-yl)phenoxy)piperidin-1-yl)methanone, HCl]	100 to 999 nM
COc1cc2cc(-c3ccc(OC4CCN(C(=O)C5CC5)CC4)cc3)cnc2cc1OC [Example 56, Cyclopropyl-{4-[4-(6,7-dimethoxyquinolin-3-yl)-phenoxy]-piperidin-1-yl}-methanone]	1000 to 10000 nM
O=C(C1CC1)N1CCC(Oc2ccc(-c3cnc4sccc4c3)cc2)CC1 [Example 255, Cyclopropyl-[4-(4-thieno[2,3-b]pyridin-5-yl-phenoxy)-piperidin-1-yl]-methanone, TFA salt]	1 to 99 nM
O=C([C@H]1CCCO1)N1CCC(Oc2ccc(-c3ccn4cnnc4c3)cc2)CC1 [Example 307, (R)-Tetrahydrofuran-2-yl-[4-(4-[1,2,4]triazolo[4,3-a]pyridin-7-yl-phenoxy)-piperidin-1-yl]-methanone]	100 to 999 nM
CCC(=O)N1CCC(Oc2ccc(-c3ccc4cccnc4c3C(N)=O)cc2)CC1 [Example 337, 7-[4-(1-Propionyl-piperidin-4-yloxy)-phenyl]-quinoline-8-carboxylic acid amide]	1000 to 10000 nM
NC(=O)c1c(-c2ccc(OC3CCN(C(=O)[C@H]4CCCO4)CC3)cc2)ccc2cccnc12 [Example 336, 7-[4-[[1-[(2R)-Tetrahydrofuran-2-carbonyl]-4 piperidyl]oxy]phenyl]quinoline-8-carboxamide]	100 to 999 nM
Cc1nccc2c(C)c(-c3ccc(OC4CCN(C(=O)[C@H]5CCCO5)CC4)cc3)ccc12 [Example 474, [4-[4-(1,5-Dimethyl-6-isoquinolyl)phenoxy]-1-piperidyl]-[(2R)-tetrahydrofuran-2-yl]methanone, HCl]	1 to 99 nM
O=C(C1CC1)N1CCC(Oc2ccc(-c3ccc4cnccc4c3)nc2)CC1 [Example 149, Cyclopropyl-[4-(6-isoquinolin-6-yl-pyridin-3-yloxy)-piperidin-1-yl]-methanone, 2HCl]	1000 to 10000 nM
O=C(C1CC1)N1CCC(Oc2ccc(-c3ccc4c(c3)OCCO4)cc2)CC1 [Example 503, Cyclopropyl-{4-[4-(2,3-dihydro-1,4-benzodioxin-6-yl)-phenoxy]-piperidin-1-yl}-methanone]	1000 to 10000 nM
COc1cc2ncc(-c3ccc(OC4CCN(C(=O)C5CC5)CC4)cc3)cc2cc1C [Example 442, Cyclopropyl-{4-[4-(7-methoxy-6-methylquinolin-3-yl)-phenoxy]-piperidin-1-yl}-methanone]	1000 to 10000 nM
CCC(=O)N1CCC(Oc2ccc(-c3cccc(-c4ccccn4)c3F)cc2)CC1 [Example 395, 1-[4-(2′-Fluoro-3′-pyridin-2-yl-biphenyl-4-yloxy)-piperidin-1-yl]-propan-1-one]	1000 to 10000 nM
Cc1ccoc1C(=O)N1CCC(Oc2ccc(-c3cnc4ccccc4c3)cc2)CC1 [Example 121, (3-Methylfuran-2-yl)-[4-(4-quinolin-3-yl-phenoxy)-piperidin-1-yl]-methanone, HCl]	1000 to 10000 nM
COc1cc(-c2ccc(OC3CCN(C(=O)C4CC4)CC3)cc2)cnc1OC [Example 499, Cyclopropyl-{4-[4-(5,6-dimethoxypyridin-3-yl)-phenoxy]-piperidin-1-yl}-methanone]	1000 to 10000 nM
COCCOc1c(-c2ccc(OC3CCN(C(=O)[C@H]4CCCO4)CC3)cc2)ccc2cccnc12 [Example 186, [4-[4-[8-(2-Methoxyethoxy)-7-quinolyl]phenoxy]-1-piperidyl]-[(2R)-tetrahydrofuran-2-yl]methanone, HCl]	1 to 99 nM
O=C(C1CC1)N1CCC(Oc2ccc(-c3cncc(Oc4ccccc4)c3)cc2)CC1 [Example 399, Cyclopropyl-{4-[4-(5-phenoxy-pyridin-3-yl)-phenoxy]-piperidin-1-yl}-methanone, HCl]	1000 to 10000 nM
Cc1c(-c2ccc(OC3CCN(C(=O)C4CCC4)CC3)cc2)ccc2cccnc12 [Example 38]	1 to 99 nM
CCC(=O)N1CCC(C(=O)N(C)c2ccc(-c3ccc4cnccc4c3)cc2)CC1 [Example 151, 1-Propionyl-piperidine-4-carboxylic acid (4-isoquinolin-6-yl-phenyl)-methylamide]	100 to 999 nM

Next, values leading:

IC50	Structure (SMILES)
100 to 999 nM	CCC(=O)N1CCC(Oc2ccc(-c3ccc4cccnc4c3OC(C)C)cc2)CC1 [Example 169, 1-{4-[4-(8-Isopropoxyquinolin-7-yl)-phenoxy]-piperidin-1-yl}-propan-1-one, HCl]
1000 to 10000 nM	Cc1ccc2ccc(-c3ccc(OC4CCN(C(=O)C5CC5)CC4)cc3)c(F)c2n1 [Example 26, Cyclopropyl-{4-[4-(8-fluoro-2-methylquinolin-7-yl)-phenoxy]-piperidin-1-yl}-methanone]
100 to 999 nM	Cc1ccc2ncc(-c3ccc(OC4CCN(C(=O)C5CC5)CC4)cc3)cc2c1 [Example 484, Cyclopropyl-{4-[4-(6-methylquinolin-3-yl)-phenoxy]-piperidin-1-yl}-methanone, HCl]
1 to 99 nM	Cc1cc(-c2ccc(OC3CCN(C(=O)C4CC4)CC3)cc2)c2cccnc2c1 [Example 349, Cyclopropyl-{4-[4-(7-methyl-quinolin-5-yl)-phenoxy]-piperidin-1-yl}-methanone, HCl]
1 to 99 nM	O=C(C1CC1)N1CCC(Oc2ccc(-c3cnc4cc(F)ccc4c3)cc2)CC1 [Example 477, Cyclopropyl-{4-[4-(7-fluoroquinolin-3-yl)-phenoxy]-piperidin-1-yl}-methanone]
1 to 99 nM	COc1ccc2cc(-c3ccc(OC4CCN(C(=O)C5CC5)CC4)cc3)cnc2c1 [Example 34, Cyclopropyl-{4-[4-(7-methoxyquinolin-3-yl)-phenoxy]-piperidin-1-yl}-methanone]
1000 to 10000 nM	COc1cc2ncc(-c3ccc(OC4CCN(C(=O)C5CC5)CC4)cc3)cc2cc1Cl [Example 448, {4-[4-(6-Chloro-7-methoxyquinolin-3-yl)-phenoxy]-piperidin-1-yl}-cyclopropylmethanone]
1000 to 10000 nM	CCC(=O)N1CCC(Oc2ccc(-c3cnc4cc(OC)c(OC)cc4c3)cc2)CC1 [Example 55, 1-{4-[4-(6,7-Dimethoxyquinolin-3-yl)-phenoxy]-piperidin-1-yl}-propan-1-one]
1000 to 10000 nM	Cc1cc(OC2CCN(C(=O)C(C)C)CC2)ccc1-c1cnc2ccccc2c1 [Example 206, 2-Methyl-1-[4-(3-methyl-4-quinolin-3-yl-phenoxy)-piperidin-1-yl]-propan-1-one]
1000 to 10000 nM	CCC(=O)N1CCC(Oc2ccc(-c3ccc(N4CCOCC4)nc3)cc2)CC1 [Example 386, 1-{4-[4-(6-Morpholin-4-yl-pyridin-3-yl)-phenoxy]-piperidin-1-yl}-propan-1-one]
1000 to 10000 nM	CCC(=O)N1CCC(Oc2ccc(-c3ccc4ccc(C)nc4c3F)cc2)CC1 [Example 25, 1-{4-[4-(8-Fluoro-2-methylquinolin-7-yl)-phenoxy]-piperidin-1-yl}-propan-1-one]

System: not given
Assay: not given
Conditions: not given

melting point	Structure (SMILES)
53 °C	CCC(=O)N1CC[C@@H](Oc2ccc(-c3ccc4cccnc4c3)cc2)C1 (as salt: HCl) [Example 344, (R)-1-(3-(4-(Quinolin-7-yl)phenoxy)pyrrolidin-1-yl)propan-1-one, HCl]
207 to 212 °C	CCC(=O)N1CCC(Oc2ccc(-c3cnc4ccccc4c3)nc2)CC1 (as salt: HCl) [Example 140, 1-[4-(6-Quinolin-3-yl-pyridin-3-yloxy)-piperidin-1-yl]-propan-1-one, 2HCl]
136 to 146 °C	O=C(C1CC1)N1CCC(Oc2ccc(-c3ccc4cnccc4c3)nc2)CC1 (as salt: HCl) [Example 149, Cyclopropyl-[4-(6-isoquinolin-6-yl-pyridin-3-yloxy)-piperidin-1-yl]-methanone, 2HCl]
236 to 241 °C	CC(C)C(=O)N1CCC(Oc2ccc(-c3ccc4cnccc4c3)nc2)CC1 (as salt: HCl) [Example 148, 1-[4-(6-Isoquinolin-6-yl-pyridin-3-yloxy)-piperidin-1-yl]-2-methyl-propan-1-one, 2HCl]
